# Assay results published in publication PMC10447463, “Data-mining unveils structure–property–activity correlation of viral infectivity enhancing self-assembling peptides” (Nature Communications, 2023).
# Read-outs that look alike come from different tables or passages of the source.
# Tests used:
# [1] = system: HIV-1 infection of TZM-bl cells; assay: HIV-1 infectivity enhancement assay, β-galactosidase luminescence; type: cell-based; conditions: for Rel-EFC / Log10 Infection Rel EFC: 1.3 µM peptide; for Rel-EFC: infection relative to EF-C (QCKIKQIINMWQ = 1); for Log10 Infection Rel EFC: log10 of infection relative to EF-C; for Log Infectivity: Log10 infection relative to EF-C, TZM-bl cells, asymmetric std dev errors; for Log10 Infection Rel EF-C: HIV-1 infection of TZM-bl cells; for Abs. Inf.: absolute infection signal, HIV-1 on TZM-bl cells, β-galactosidase luminescence; for Log10 Inf. rel. to EF-C: log10 of HIV-1 infection of TZM-bl cells relative to EF-C (EF-C = 0); for Log10 of Rel to EFC (Feb2021): Log10 of infection relative to EF-C
# [2] = β-sheet content by ATR-FT-IR; type: physicochemical; conditions: for b -sheet / %: Fig. S7 panel A, β-sheet content by ATR-FT-IR
# Outline: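 Conversion rate: fluorescamine fluorescence (ex 365/em 470 nm, 20 min RT) of 3 kDa filtrate versus unfiltered PNF, CR = 100 − 100 × filtrate/original intensity, triplicates. β-sheet content came from ATR FT-IR of lyophilized 1 mg/mL PNF powder, 64 scans.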
# [3] = Zeta-potential measurement; type: physicochemical
# Outline: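 In this measurement, peptides aggregated for a day at RT in phosphate-buffered saline (pH 7.4, 1 mg/mL) are diluted into 1 mM potassium chloride, and the electrophoretic mobility is translated into zeta potential by Smoluchowski's relation.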
# [4] = Turbidity, derived count rate of scattered light; type: physicochemical; conditions: for Count Rate / kcps: derived count rate of scattered light at 633 nm, 173°, from zeta-potential measurement, 0.1 mg/mL in 1 mM KCl after 1 d at 1 mg/mL in PBS, turbidity / microscopic aggregation, mean of triplicate
# Outline: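 Samples: 1 mg/mL in PBS pH 7.4 (from DMSO), 1 d at RT, then diluted in 1 mM KCl immediately before measurement. Triplicates, two independent runs averaged.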
# [5] = Fig. S7 panel A (plotted against β-sheet content)
# [6] = Log10 of infection rate relative to EF-C, Figure 3A source data
# [7] = infection rate relative to EF-C, log10, data of Figure 2D
# [8] = infection rate relative to EF-C, log10, source data of Figure 2C
# [9] = zeta-potential of peptide, source data of Figure 2C
# [10] = zeta-potential of the peptide assemblies, mean, Figure 3A source data
# [11] = Log10 of derived count rate of scattered light (turbidity)
# [12] = turbidity, Log10 of derived count rate of scattered light, Figure 3A source data
# [13] = turbidity, log10 of derived count rate of scattered light
# [14] = Fig. S7 panel B (plotted against CR), rounded to two decimals
# [15] = zeta potential of peptide assemblies
Substance,Rel-EFC [1],Log10 Infection Rel EFC [1],"Log Infectivity [1, 5]","Log10 Infection Rel EF-C [1, 6]","Log10 Infection Rel EF-C [1, 7]","Log10 Infection Rel EF-C [1, 8]",Abs. Inf. [1],Log10 Inf. rel. to EF-C [1],b -sheet / % [2] [%],Zeta-Pot. [3],"Zeta-Potential / mV [3, 9] [mV]","Zeta-Potential / mV [3, 10] [mV]","Log10 Count Rate [4, 11]",Count Rate / kcps [4] [kcps],"Log10 Count Rate [4, 12]","Log10 Count Rate [4, 13]","Log Infectivity [1, 14]",Log10 of Rel to EFC (Feb2021) ([1]; all peptides of FigS16),"Zeta-Pot. [3, 15]",other results
MKFM,"0,02","-1,76",-1.756,-1.76,-1.756,-1.756,383.3,-1.756,34.63,-16,-9.2,-16,2.1165,131,2.1165,2.1165,–,–,–,–
CKIKQIINM,"0,5","-0,3",-0.3035,-0.3,-0.3035,-0.3035,11280,-0.3035,46,12.9,13.87,12.9,3.957,9058,3.957,3.957,-0.3,-0.3,–,–
HGEHGE,"0,01","-2,19",-2.193,-2.19,-2.193,-2.193,140,-2.193,9.5428,-12.6,-8.73,-12.6,2.381,241,2.381,2.381,–,–,–,–
NMWQKIKIQI,"0,21","-0,69",-0.6877,-0.69,-0.6877,-0.6877,–,-0.6877,39.24,–,7.36,8.26,4.001,10024,4.001,4.001,–,-0.69,8.26,–
KIKIQINMWQ,"0,3","-0,53",-0.5276,-0.53,-0.5276,-0.5276,6650,-0.5276,42.41,14.87,15.7,14.87,3.342,2196,3.342,3.342,-0.53,-0.53,–,–
KVKGVGK,"0,03","-1,59",-1.587,-1.59,-1.587,-1.587,286.7,-1.587,8.763,-12.8,-7.825,-12.8,1.709,51,1.709,1.709,–,–,–,–
QCKFKFQFNMWQ,"0,62","-0,21",-0.2086,-0.21,-0.2086,-0.2086,19753.33333,-0.2086,47.0491,21.07,16.85,21.07,3.082,1208,3.082,3.082,-0.21,-0.21,–,–
CKFKFQFNMW,"0,96","-0,02",-0.01766,-0.02,-0.01766,-0.01766,–,–,47.7253,–,17.67,18.4,3.613,4107,3.613,–,–,-0.02,18.4,Log10 Count Rate ([4]; log10 of derived count rate of scattered light (turbidity)): 3.613
TKTLTKTL,"0,02","-1,67",-1.671,-1.67,-1.671,-1.671,316.7,-1.671,34.38,-25.1,-13.63,-25.1,2.711,515,2.711,2.711,–,–,–,–
KIRGKFEKED,"0,06","-1,24",-1.2355,-1.24,-1.2355,-1.2355,643.3,-1.2355,28.67,-12.7,-7.197,-12.7,2.331,214,2.331,2.331,–,–,–,–
KIKIQIN,"0,27","-0,58",-0.5766,-0.58,-0.5766,-0.5766,–,-0.5766,41.82,–,4.4,3.34,1.638,43,1.638,1.638,–,-0.58,3.34,Log10 Count Rate ([4]; logarithm of count rate in kcps): 1.638
KIKIKIKIYYYY,"1,38","0,14",0.1402,0.14,0.1402,0.1402,–,0.1402,56.7,–,14.07,13.3,3.996,9918,3.996,3.996,–,0.14,13.3,"Log10 of Rel to EFC (Feb2021) ([1]; second listing, peptides with TEM 2cat 0): 0.14; beta sheet ([2]; peptides with TEM 2cat 0): 57; Zeta Count Rate ([4]; peptides with TEM 2cat 0): 9918 kcp"
RLRLTLC,"0,05","-1,29",-1.288,-1.29,-1.288,-1.288,1334,-1.288,20.6858,19.67,20.73,19.67,2.0991,126,2.0991,2.0991,-1.29,–,–,–
